# Test results reported in publication PMC11026381, “Late-stage meta-C–H alkylation of pharmaceuticals to modulate biological properties and expedite molecular optimisation in a single step” (Nature Communications, 2024).
# Assay: Metabolic stability in human liver microsomes (CLint HLM)
# Type: in vitro ADME
# Conditions: both sexes, human, liver microsomes, pH 7.4, measured on the labelled compound itself, 1 mg/mL microsomal protein, 1 mM NADPH, 37 °C, n = 1, read-out: CLint HLM (intrinsic clearance in human liver microsomes)
# Protocol: Metabolic stability in human liver microsomes (CLint HLM)
# Human liver microsomes were defrosted on ice and diluted to 1 mg/mL of microsomal protein in phosphate buffer (0.1 M, pH 7.4). Compounds at 1 μM were incubated with the liver microsome suspensions and 1 mM NADPH at 37 °C in a 96-well plate. At 0.5, 5, 10, 15, 20 and 30 min, aliquots of 30 μL were transferred to a 96-well plate containing 120 μL MeCN. This plate was centrifuged for 20 min and supernatant was removed and diluted with H2O (1:1) before analysis by LC-MS/MS (Waters Xevo-TQS). Peak areas were determined from extracted ion chromatograms, and the in vitro intrinsic clearance (in vitro CLint, in μL/min/mg microsomal protein) of parent compound was calculated from the slope in the regression analysis of the natural logarithm of parent concentration vs. time curve.
# Human Liver Microsomes (InVitroCYPTM 150-Donor, Mixed Gender) were harvested and supplied by BioIVT (Product No. X008070, Lot No. QQY). […]
# (§1) The modulation of pharmaceutically relevant properties on meta-C–H alkylation is shown below in Supplementary Fig. 68, with a selection of physicochemical and DMPK data including solubility , LogD, human plasma protein binding (Prot. Bind.) and intrinsic clearance (CLint) in human liver microsomes (HLM) or rat hepatocytes (Rat Hep.) .
row,SMILES,microsomal CLint at 1 μM
1,CCN(Cc1ccccc1)C(=O)Cn1c(=O)n(C)c2cnc(-c3cccc(C4(C(=O)OC)CC4)c3)nc21 [6c],> 300 µL/min/mg
2,CCN(Cc1ccccc1)C(=O)Cn1c(=O)n(C)c2cnc(-c3cccc(C4(C#N)CCC4)c3)nc21 [6d],> 300 µL/min/mg

# Same assay, conditions: measured on the labelled compound itself; 1 μM, 1 mg/mL microsomal protein, 1 mM NADPH, 37 °C, n = 1
row,SMILES,CLint HLM (intrinsic clearance in human liver microsomes)
1,CCN(Cc1ccccc1)C(=O)Cn1c(=O)n(C)c2cnc(-c3cccc(C4(C(=O)OC)CC4)c3)nc21 [6c],< 3.0 µL/min/mg

# Assay: Fraction unbound in human plasma (Prot. Bind.), equilibrium dialysis
# Type: in vitro ADME
# Conditions: 5 μM, dialysis at 37 °C for 18 hours, n = 1
# From the text: (§2) 5. Pharmaceutically relevant properties modulation
# (§3) Product analogues 5e, 6a-6k obtained after late-stage meta-C–H alkylation of the pharmaceutically active compound Emapunil (4e) were subjected to a range of fundamental in vitro drug discovery assays. To prevent hydrolysis of ester groups present on these analogues during biological testing (in order to compare the clearance and metabolic stability between these drug derivatives), their corresponding free acids 5e’, 6a’-6k’ were synthesised (see page S54) and subjected to similar assays.
# (§4) The experimental methods used for these physicochemical & drug metabolism and pharmacokinetics (DMPK) assays are described below 11. […]
# Fraction unbound in human plasma (Prot. Bind.)
# Equilibrium dialysis of compounds was used to assess the fraction unbound in human plasma. Stock solutions of compounds dissolved in DMSO were pooled into cassettes with up to 10 compounds in each cassette with a concentration of 1 mM. The pooled stock solutions were diluted in plasma to a compound concentration of 5 μM. Warfarin, propranolol and metoprolol were used as reference compounds in each run. The equilibrium dialysis device (RED, Thermo Fischer Scientific Inc., Rockford, USA) was used for dialysis against phosphate buffer (pH 7.4) at 37 °C for 18 hours. Calibration curves ranging from 0.001 to 7 μM were made using aliquots of the 7 μM spiked plasma pools that were transferred to a new plate followed by serial dilutions with blank plasma. Calibration curve samples and dialysis samples were precipitated with MeCN and after centrifugation, supernatants were removed and analysed using LC-MS/MS (Waters Xevo-TQS). Fraction unbound in the incubation was calculated as the concentration in the media buffer sample divided by the concentration in the plasma sample. The fraction unbound was reported as the median value.
row,SMILES,"Prot. Bind. (% free), human plasma protein binding"
1,CCN(Cc1ccccc1)C(=O)Cn1c(=O)n(C)c2cnc(-c3cccc(C4(C(=O)OC)CC4)c3)nc21 [6c],6.6 % free
2,CCN(Cc1ccccc1)C(=O)Cn1c(=O)n(C)c2cnc(-c3cccc(C4(C#N)CCC4)c3)nc21 [6d],0.5 % free

# Assay: Metabolic stability in male Han Wistar rat hepatocytes (CLint Rat Hep.)
# Type: in vitro ADME
# Conditions: measured on the labelled compound itself; 1 μM, 10^6 viable cells/mL, 37 °C, n = 1
# Protocol: Metabolic stability in male Han Wistar rat hepatocytes (CLint Rat Hep.) Hepatocyte metabolic stability was determined in accordance with the method described by Jacobson et al14. Cryopreserved hepatocytes at a concentration of 10 6 viable cells/mL were used. After thawing, hepatocytes were incubated for 10 min to warm to 37 °C, and compounds dissolved in MeCN were […]
# incubation system was mixed and 20 μL aliquots were transferred at each time point to wells in a separate plate filled with 80 μL MeCN to stop the reaction. The quenching plate was then vortexed followed by centrifugation, and supernatants were analysed by LC-MS/MS (Waters Xevo-TQS). Peak areas were determined from extracted ion chromatograms, and the in vitro intrinsic clearance (in vitro CLint, in μL/min/10^6 cells) of parent compound was calculated from the slope in the regression analysis of the natural logarithm of parent concentration vs. time curve. Rat Hepatocytes (Cryosuspension, Male Wistar Hannover ) were harvested and s upplied by BioIVT (Product No. M00065, Lot No. DVO).
# as §1
row,SMILES,CLint Rat Hep. (intrinsic clearance in rat hepatocytes)
1,CCN(Cc1ccccc1)C(=O)Cn1c(=O)n(C)c2cnc(-c3cccc(C4(C(=O)OC)CC4)c3)nc21 [6c],> 300 μL/min/10^6
2,CCN(Cc1ccccc1)C(=O)Cn1c(=O)n(C)c2cnc(-c3cccc(C4(C#N)CCC4)c3)nc21 [6d],> 300 μL/min/10^6

# Same assay, conditions: measured on the labelled compound itself; 1 μM, 10^6 viable cells/mL, 37 °C, n = 1; listed as 6c’
row,SMILES,CLint Rat Hep. (intrinsic clearance in rat hepatocytes)
1,CCN(Cc1ccccc1)C(=O)Cn1c(=O)n(C)c2cnc(-c3cccc(C4(C(=O)OC)CC4)c3)nc21 [6c],36.2 μL/min/10^6

# Assay: Thermodynamic solubility, shake-flask approach, phosphate buffer pH 7.4
# Type: physicochemical
# Conditions: aqueous buffer, thermodynamic from solid, pH 7.4, phosphate buffer 0.1 M, 20 °C, n = 1
# From the text: as §2, §3
# The experimental methods used for these physicochemical & drug metabolism and pharmacokinetics (DMPK) assays are described below 11.
# This method measures the thermodynamic solubility of compounds based on a shake-flask approach12.
# The nature of the solid state was unknown in these experiments and may be subject to variability. The compounds were dissolved in DMSO (30 μL, 10 mM) in glass vials, and were dried using a Genevac vacuum evaporator (Genevac Ltd, Ipswich, UK). When the samples were dry, 300 μL of phosphate buffer (0.1 M, pH 7.4) was added to the glass vials. The vials were put on an Edmund Bühler shaker (Edmund Bühler GmbH, Hechingen, Germany) at 20 °C for 18 hours. Samples were filtered through a Whatman GF/B 96-well filter and 20 μL of filtrated samples were transferred to separate wells in a plate containing 180 μL MeCN/H2O (1:1). Standards were prepared by diluting the 10 mM compound solutions with MeCN/H2O (1:1) to 200 μM. Three further dilution steps of 10 times were applied to both the samples and standards and they were all analy sed by LC-MS/MS (Waters Xevo-TQS). Solubility was determined using the integrated peak areas of the samples in the linear MS response range. […]
row,SMILES,solubility at 18 h
1,CCN(Cc1ccccc1)C(=O)Cn1c(=O)n(C)c2cnc(-c3cccc(C4(C(=O)OC)CC4)c3)nc21 [6c],51 µM
2,CCN(Cc1ccccc1)C(=O)Cn1c(=O)n(C)c2cnc(-c3cccc(C4(C#N)CCC4)c3)nc21 [6d],50 µM

# Same assay, conditions: pH 7.4, phosphate buffer 0.1 M, 20 °C, n = 1
row,SMILES,solubility at 18 h
1,CCN(Cc1ccccc1)C(=O)Cn1c(=O)n(C)c2cnc(-c3cccc(C4(C(=O)OC)CC4)c3)nc21 [6c],965 µM

# Assay: Octanol/water partitioning (LogD), shake-flask method
# Type: physicochemical
# Conditions: 1-octanol / phosphate buffer pH 7.4, 20 °C, n = 1
# From the text: as §2, §3, §4
# Octanol/water partitioning (LogD)
# Partitioning of compounds between 1 -octanol and phosphate buffer (0.1 M, pH 7.4) at 20 °C were determined using a modified version of the shake -flask method described by Leo et al13. Compounds were dissolved in a 96 -well plate, in 400 μL octanol, and 400 μL of buffer was added to each well. The plate was vigorously stirred for 5 min and then put on an Edmund Bühler shaker (Edmund Bühler GmbH, Hechingen, Germany) at 20 °C for 18 hours. Aliquots of 5 μL octanol were transferred and diluted with 495 μL MeCN/H2O (1:1) and, to avoid contamination of the buffer, the rest of the octanol was removed before 150 μL of buffer samples were transferred. Octanol and buffer samples were diluted with MeCN/H2O (1:1) in four steps of 10 times to yield octanol samples diluted 10 2 to 106 times and buffer samples diluted 1 to 104 times. LC-MS/MS (Waters Xevo-TQS) was used for analysis, and distribution coefficient at pH 7.4 (LogD7.4) was calculated from the integrated peak areas of the samples in the linear MS response range. LogD7.4 results were reported as median values. […]
row,SMILES,LogD (octanol)
1,CCN(Cc1ccccc1)C(=O)Cn1c(=O)n(C)c2cnc(-c3cccc(C4(C(=O)OC)CC4)c3)nc21 [6c],0.3

# Same assay, conditions: 1-octanol/phosphate buffer, pH 7.4, 1-octanol / phosphate buffer pH 7.4, 20 °C, n = 1
row,SMILES,logD
1,CCN(Cc1ccccc1)C(=O)Cn1c(=O)n(C)c2cnc(-c3cccc(C4(C(=O)OC)CC4)c3)nc21 [6c],3.3
2,CCN(Cc1ccccc1)C(=O)Cn1c(=O)n(C)c2cnc(-c3cccc(C4(C#N)CCC4)c3)nc21 [6d],3.9
